This test deals with Phosphorylation of STAT6 in human A549 cells. The test can be described thus: Phosphorylated STAT6 (pSTAT6) flow cytometry assay in human A549 cells. Format: cell-based. The text has this: Example 3. Phosphorylated STAT6 (pSTAT6) Flow Cytometry Assay in Human A549 Cells
Phosphorylation of STAT6 in human A549 cells was quantitatively measured using flow cytometry technology.

Where [1] appears, read: read-out: STAT6 IL4 pSTAT6 assay in A549 cells: Average IC50.

The structures appear in SMILES notation. Read-outs that look alike come from different tables or passages of the source. Bounds are passed on as bounds.

The IC50 is the point on the concentration scale where inhibition reaches its midpoint.

In the case of `COc1cc(F)cnc1N1CCN(C(=O)c2cc3c(C4CN(C)C4)cc(C4=CCCN(C(=O)CCn5ccnn5)C4)c(F)c3[nH]2)CC1` [Example I-785], the IC50 under setting [1] was < 100 nM. On the same count and under the same terms, the figure for `COc1ccncc1-c1cc(C2=CCCN(C(=O)CCn3ccnn3)C2)c(F)c2[nH]c(C(=O)N3CCN(c4ncccc4OC4CC4)CC3)cc12` [Example I-456] is < 100 nM. Consider `COc1ccncc1-c1cc(C2=CCCN(C(=O)CCn3ccnn3)C2)c(F)c2[nH]c(C(=O)N3CCN(c4ccccn4)C(C)C3)cc12` (centres unmarked) [Example I-568], for which the IC50 under setting [1] was < 100 nM. Take `COc1ccnc(N2CCN(C(=O)c3cc4c(-c5ccccc5OC)cc(C5=CCCN(C(=O)CCn6ccnn6)C5)c(F)c4[nH]3)CC2)c1` [Example I-900]: under setting [1], the IC50 was < 100 nM. `COc1ccccc1-c1cc(C2=CCCN(C(=O)C(C)C)C2)c(F)c2cc(C(=O)N(C)C)oc12` [Example I-1190]: under setting [1], the IC50 fell in the range of 100 to 1000 nM.

On to `CCc1ccccc1-c1cc(C2=CCCN(C(=O)CCn3ccnn3)C2)c(F)c2[nH]c(C(=O)N3CCN(c4ncc(F)cc4OC)CC3)cc12` [Example I-665], for which, under setting [1], the IC50 was < 100 nM.

In the case of `COc1cnccc1-c1cc(C2=CCCN(C(C)=O)C2)c(F)c2[nH]c(C(=O)N3CCN(c4ncc(F)cc4OC)CC3)cc12` [Example I-697], under setting [1], the IC50 was > 100000 nM. Still for that read-out and setting: the result for `COc1cc(F)ccc1-c1cc(C2=CCCN(C(=O)CCn3ccnn3)C2)c(F)c2[nH]c(C(=O)N3CCN(c4ccccc4OC)CC3)cc12` [Example I-598] reads < 100 nM; that for `COc1ncccc1-c1cc(C(=O)N2Cc3cnn(C)c3C2)cc2cc(C3=CCCN(C(=O)CCn4ccnn4)C3)n(CC3CC3)c12` [Example I-717], 10000 to 100000 nM; that for `CCc1cnccc1-c1cc(C2=CCCN(C(C)=O)C2)c(F)c2[nH]c(C(=O)N3Cc4cnn(C)c4C3)cc12` [Example I-705], 10000 to 100000 nM. Turning to `CN(C)C(=O)c1cc2cc(C3=CCCN(C(=O)CCn4ccnn4)C3)cc(NCc3cccc4ncccc34)c2o1` [Example I-871], under setting [1], the IC50 was < 100 nM.

Take `COc1ccccc1-c1cc(C2=CCCN(C(=O)CCn3ccnn3)C2)c(F)c2[nH]c(C(=O)N3CCN(c4cc(F)c5ncccc5c4)CC3)cc12` [Example I-953]: the concentration for half-maximal inhibition (IC50) under setting [1] was < 100 nM. On the same count and under the same terms, the result for `COc1ccncc1-c1cc(C2=CCCN(C(=O)CCn3ccnn3)C2)c(F)c2[nH]c(C(=O)N3CCN(c4ccc(F)c(OC)n4)CC3)cc12` [Example I-444] reads < 100 nM; that for `CCC1CCCCC1c1cc(C2=CCCN(C(=O)CCn3ccnn3)C2)c(F)c2[nH]c(C(=O)N3CCN(c4ncc(F)cc4OC)CC3)cc12` (single isomer, unassigned) [Example I-1174], 1000 to 10000 nM. On the same count and under the same terms, the figure for `COc1ccccc1-c1cc(C2=CCCN(C(=O)CCn3ccnn3)C2)c(F)c2[nH]c(C(=O)N3CCN(c4ncccc4Cl)CC3)cc12` [Example I-324] is < 100 nM; for `COc1cc2c(-c3cc(C4=CCCN(C(=O)CCn5ccnn5)C4)c(F)c4[nH]c(C(=O)N5CCN(c6ncc(F)cc6OC)CC5)cc34)ccnc2cc1F` [Example I-691] it is < 100 nM. For the compound `COc1cccnc1N1CCN(C(=O)c2cc3c(-c4ccc5ccccc5c4OC)cc(C4=CCCN(C(=O)CCn5ccnn5)C4)c(F)c3[nH]2)CC1` [Example I-396], the IC50 under setting [1] was > 100000 nM. As for `COc1ccccc1-c1cc(C2=CCCN(C(=O)CCn3ccnn3)C2)c(F)c2[nH]c(C(=O)N3Cc4cccc(F)c4C3)cc12` [Example I-982], the IC50 under setting [1] was > 100000 nM. Turning to `COc1cc(F)cnc1N1CCN(C(=O)c2cc3c(-c4cccc(OC(C)C)c4)cc(C4=CCCN(C(=O)CCn5ccnn5)C4)c(F)c3[nH]2)CC1` [Example I-638], the IC50 under setting [1] was < 100 nM. The same measure, in the same setting: the figure for `COc1cc(F)cnc1N1CCN(C(=O)c2cc3c(-c4c(F)ccc5ccc(C)nc45)cc(C4=CCCN(C(=O)CCn5ccnn5)C4)c(F)c3[nH]2)CC1` [Example I-631] is < 100 nM; for `CC(=O)N1CCC=C(c2cc(-c3ccc4cnn(C)c4c3)c3cc(C(=O)N(C)C)[nH]c3c2F)C1` [Example I-882] it is 100 to 1000 nM. On to `COc1ccncc1-c1cc(C2=CCCN(C(=O)CCn3ccnn3)C2)c(F)c2[nH]c(C(=O)N3CCN(c4ncc(C(C)C)cc4OC)CC3)cc12` [Example I-454], for which the IC50 under setting [1] is < 100 nM. For the compound `CCc1cc(C)ncc1-c1cc(C2=CCCN(C(=O)CCc3nccs3)C2)c(F)c2[nH]c(C(=O)N3Cc4cnn(CC)c4C3)cc12` [Example I-538], the IC50 under setting [1] was < 100 nM. Still for that read-out and setting: the result for `COc1ccncc1-c1cc(C2=CCCN(C(=O)CCn3ccnn3)C2)c(F)c2[nH]c(C(=O)N3CCN(c4ccc(C(F)(F)F)cc4OC)CC3)cc12` [Example I-463] reads < 100 nM. For `COc1ccccc1-c1cc(C2=CCCN(C(=O)CCn3ccnn3)C2)c(F)c2[nH]c(C(=O)N3CCC(OC4CCC4)CC3)cc12` [Example I-984], the IC50 under setting [1] was < 100 nM. The same measure, in the same setting: the figure for `CCC1=C(c2cc(C3=CCCN(C(=O)CCn4ccnn4)C3)c(F)c3[nH]c(C(=O)N4CCN(c5ncc(F)cc5OC)CC4)cc23)CCCC1` [Example I-1172] is 100 to 1000 nM; for `CCC1=C(c2cc(C3=CCCN(C(=O)CCn4ccnn4)C3)c(F)c3[nH]c(C(=O)N4CCN(c5ncc(F)cc5OC)CC4)cc23)CN(C)C1` [Example I-782] it is < 100 nM. With `COc1cc(F)cnc1N1CCN(C(=O)c2cc3c(-c4ccc(C5(C#N)CC5)cc4)cc(C4=CCCN(C(=O)CCn5ccnn5)C4)c(F)c3[nH]2)CC1` [Example I-1140], the IC50 under setting [1] was < 100 nM.

`COc1cccnc1N1CCN(C(=O)c2cc3c(C4=CCN(C)CC4C)cc(C4=CCCN(C(=O)CCn5ccnn5)C4)c(F)c3[nH]2)CC1` (centres unmarked) [Example I-1150]: the IC50 under setting [1] is < 100 nM.

In the case of `COc1ccccc1-c1cc(C2=CCCN(C(=O)CCn3ccnn3)C2)c(F)c2[nH]c(C(=O)N3CCN(c4nc(C)cs4)CC3)cc12` [Example I-1024], the IC50 under setting [1] was < 100 nM.

`COc1ccc(-c2cc(C3=CCCN(C(=O)CCn4ccnn4)C3)cc3cc(C(=O)N(C)C)oc23)c(C#N)c1` [Example I-854]: the IC50 under setting [1] was < 100 nM. Turning to `COc1ccccc1-c1cc(C2=CCCN(C(=O)CCn3ccnn3)C2)c(F)c2[nH]c(C(=O)N3CCN(C4CC4)CC3)cc12` [Example I-325], the IC50 under setting [1] was < 100 nM. Regarding `COc1ccccc1-c1cc(C2=CCCN(C(=O)CCn3ccnn3)C2)c(F)c2[nH]c(C(=O)N3CCN(c4cc5cnn(C)c5cc4C)CC3)cc12` [Example I-925], the IC50 under setting [1] was 100 to 1000 nM.

For `COc1ccccc1-c1cc(C2=CCCN(C(=O)CCn3ccnn3)C2)c(F)c2[nH]c(C(=O)N3CCN(c4ncccn4)C[C@@H]3C)cc12` [Example I-995], under setting [1], the IC50 was < 100 nM. Still for that read-out and setting: the result for `CCc1ccncc1-c1cc(C2=CCCN(C(=O)CCn3cccn3)C2)c(F)c2[nH]c(C(=O)N3CCN(c4ncc(F)cc4OC)CC3)cc12` [Example I-686] reads < 100 nM; that for `COc1ccccc1-c1cc(C2=CCCN(C(C)=O)C2)cc2[nH]c(C(=O)N(C)C)cc12` [Example I-1091], 100 to 1000 nM. Regarding `CCc1nc(C)ccc1-c1cc(C(=O)N2CCN(c3ncc(F)cc3OC)CC2)cc2cc(C3=CCCN(C(=O)CCn4ccnn4)C3)n(CC(C)C)c12` [Example I-524], the IC50 under setting [1] is < 100 nM.

On to `COc1ccccc1-c1cc(C2=CCCN(C(=O)CCn3ccnn3)C2)c(F)c2[nH]c(C(=O)N3CCN(C4CC5CCC4C5)CC3)cc12` (centres unmarked) [Example I-1181], for which, under setting [1], the IC50 is < 100 nM. Same read-out and setting: the figure for `COc1ccccc1-c1cc(C2=CCCN(C(=O)CCn3ccnn3)C2)c(F)c2[nH]c(C(=O)N3CCN(c4ccc5n[nH]cc5c4)CC3)cc12` [Example I-859] is < 100 nM; for `COc1nc(N2CCN(C(=O)c3cc4c(-c5cnc6ccccc6c5OC)cc(C5=CCCN(C(=O)CCn6ccnn6)C5)c(F)c4[nH]3)CC2)ccc1F` [Example I-469] it is 100 to 1000 nM. Still for that read-out and setting: the figure for `COc1ccccc1-c1cc(C2=CCCN(C(=O)CCn3ccnn3)C2)c(F)c2[nH]c(C(=O)N3CCN(c4c(OC)cccc4Oc4ccccc4)CC3)cc12` [Example I-414] is 100 to 1000 nM; for `CCc1ccncc1-c1cc(C2=CCCN(C(=O)CC(=O)O)C2)c(F)c2[nH]c(C(=O)N3CCN(c4ncc(F)cc4OC)CC3)cc12` [Example I-786] it is < 100 nM; for `CCc1ccncc1-c1cc(C2=CCCN(C(=O)CCC(=O)O)C2)c(F)c2[nH]c(C(=O)N3CCN(c4ncc(F)cc4OC)CC3)cc12` [Example I-1170] it is 100 to 1000 nM. On to `COc1ccccc1-c1cc(C2=CCCN(C(=O)CCn3ccnn3)C2)c(F)c2[nH]c(C(=O)N3CCN(c4ccn5nc(C)nc5c4)CC3)cc12` [Example I-919], for which the IC50 under setting [1] is < 100 nM. Consider `COc1ccccc1-c1cc(C2=CCCN(C(=O)C(C)C)C2)c(F)c2[nH]c(C(=O)N(C)C)cc12` [Example I-837], for which the IC50 under setting [1] fell in the range of 100 to 1000 nM. Take `COc1cc(F)cnc1N1CCN(C(=O)c2cc3c([C@@H]4CCCN4C)cc(C4=CCCN(C(=O)CCn5ccnn5)C4)c(F)c3[nH]2)CC1` (single isomer, unassigned) [Example I-813]: the 50% inhibitory concentration (IC50) is, setting by setting: (listed as I-390, read-out: STAT6 IL4 pSTAT6 assay in A549 cells: Average IC50) < 100 nM; under setting [1], > 100000 nM. For the compound `COc1ccccc1-c1cc(C2=CCCN(C(=O)CCn3ccnn3)C2)c(F)c2[nH]c(C(=O)N3CCN(Cc4noc(C)n4)CC3)cc12` [Example I-1201], under setting [1], the IC50 is < 100 nM. With `CCc1cccnc1N1CCN(C(=O)c2cc3c(-c4ccccc4OC)cc(C4=CCCN(C(=O)CCn5ccnn5)C4)c(F)c3[nH]2)CC1` [Example I-327], the half-maximal inhibitory concentration (IC50) under setting [1] was < 100 nM.

Take `COc1ccccc1-c1cc(C2=CCCN(C(=O)CCn3ccnn3)C2)c(F)c2[nH]c(C(=O)N3CCN(CCCF)CC3)cc12` [Example I-843]: the IC50 under setting [1] was < 100 nM.

With `COc1ccccc1-c1cc([C@H]2CCCN(C(=O)CCn3ccnn3)C2)c(F)c2[nH]c(C(=O)N(C)C)cc12` [Example I-1195], the half-maximal inhibitory concentration (IC50) under setting [1] was > 100000 nM. `COc1cc(F)cnc1N1CCN(C(=O)c2cc3c(C4CCN(C)CC4)cc(C4=CCCN(C(=O)CCn5ccnn5)C4)c(F)c3[nH]2)CC1` [Example I-725]: the IC50 under setting [1] was < 100 nM. Regarding `COc1ccccc1-c1cc(C2=CCCN(C(=O)CCn3cccn3)C2)c(F)c2[nH]c(C(=O)N3CCN(c4ncc(F)cc4OC)CC3)cc12` [Example I-687], under setting [1], the IC50 was < 100 nM.
